Source: patent US20030028906A1, “Gene control” (priority 1995, published 2003)

Experiments:
modified Ah receptor = assay: Induction of the transgene in DBA mice; format: in vivo, mouse
Source text: (§1) In addition to the use of this promoter as a general regulatable system for the expression of transgenes this strategy can be exploited to obtain expression targeted to specific cell types. Thus, for example, when the transgene is incorporated into cells containing a modified hydrocarbon receptor, the inducability of the transgene is modulated. […] In addition, the introduction of an Ah receptor responsive to 3-methylcholanthrene into a specific cell, e.g. through the use of a tissue-specific promoter element, will allow tissue-specific induction of a transgene in this mouse on administration of 3-methylcholanthrene. This strategy exploits the fact that the Ah receptor in DBA mice through mutation is non-responsive to certain classes of agents which induce by this mechanism. […] Therefore, using a combination of different forms of the Ah receptor with different types of inducing agent will allow much more precise regulation of transgene expression in cells.

[1] = system: CYP1A1/β-galactosidase promoter/reporter; assay: β-galactosidase staining of tissue sections from transgenic mice carrying pAhIR1β-gal after 3-MC induction; conditions: for β-Galactosidase staining intensity: mice carrying pAHIR1, 3-MC 40 μg/g once a day for 3 days; for induction of lacZ expression in the liver: 9 kb rat CYP1A1 promoter-lacZ transgenic mice, IP 40 mg/kg for 3 days, 40 mg/kg
Source text: The protocol described below has been adapted to analyse the β-galactosidase expression from transgenic mice and in this regard determine the activity of the P450 1A1 promoter which is effectively driving the expression of this transgene in response to induction of P450 1A1 by the carcinogenic agent 3-methylcholanthrene. All timings in this protocol are critical.
When performing this technique it is essential to incorporate a positive control into the reaction where a tissue sample which is a known expresser of β-galactosidase is treated in an identical manner to that of the test tissues. […] The positive control used in these experiments was a small intestine sample which was a known high expressor of the detection enzyme.
1) The mouse under test was killed by cervical dislocation and the organs required were removed using a sterile scalpel. A small representative piece of mouse organ was fixed on to moistened cork using commercial adhesive. The tissue sample on the cork was then frozen in liquid nitrogen chilled freezing spray (Histological Supplies LTD) for approximately 30 seconds. The tissue sample was then double wrapped in parafilm, placed in a plastic bag, sealed and snap frozen in liquid nitrogen.
4) The metal chuck was placed in the cryostat holder and turned until the tip of the tissues touched the front of the cutting blade. The cryostat was set to obtain small sections approximately 8 microns thickness. By turning the handle of the cryostat small sections of tissue were obtained. Sections were continually taken until a representative section of tissue was obtained. The antiroll plate was then placed against the blade and a section to be harvested was cut.
9) Slides were produced as described using the cryostat and the tissue was fixed in 0.5% glutaraldehyde (in PBS) for 1 day at 4° C. 10) The tissue was then incubated in PBS +2mM MgCl2+30% sucrose at 4° C. overnight.
13) 2-3 hours in X-gal solution at 37° C. or even overnight.
19) The slides were then mounted in DPX and viewed under a microscope. It was important at this stage that the slides were never permitted to dry out since this will affect the quality of the results. The slides should be continually dipped into the histoclear solution to prevent this occurring while the slides are being prepared.
The expected results from the β-galacotsidase staining assay are areas of pink which uniformly stain the tissue section and small areas of blue in the tissue section which indicate areas where X-gal has been metabolised by the β-galactosidase enzyme.
The inducibility of expression. The pAhIR1βgal transgene in the liver was examined after administration of 3-methylcholanthrene (3-mc). The inducing agent was administered IP at a dosage of 40 mg/kg for 3 days and the animals were sacrificed for expression on day four. The induction in the transgenic animals was controlled by:
a) administration of corn oil to transgenic mice,
b) the administration of 3-methylcholanthrene (3-mc) to non-transgenic littermates.
lacZ expression was also investigated in a number of other tissues. The same procedure for sectioning and staining tissue sections was employed.

β-galactosidase activity = assay: β-galactosidase staining of tissue sections from non-transgenic controls treated with 3-MC; format: in vivo, mouse
Source text: All timings in this protocol are critical.

Ah receptor = assay: Induction of the transgene in C57 BL6 mice; format: in vivo, mouse
Source text: as §1

[2] = system: CYP1A1 dioxin-responsive promoter coupled to CAT reporter gene; conditions: 2.58 kbp mouse CYP1A1 fragment-CAT transgenic mice, cited from earlier work

Clc1cc2c(cc1Cl)Oc1cc(Cl)c(Cl)cc1O2 [tetrachlorodibenzodioxin]
induction of the transgene (modified Ah receptor): induction can still be obtained

Cc1ccc2cc3c(ccc4ccccc43)c3c2c1CC3 [3-methylcholanthrene]
β-Galactosidase staining intensity ([1]; Adrenal gland): +++ | β-Galactosidase staining intensity ([1]; Colon): + | β-Galactosidase staining intensity ([1]; Duodenum): +++ | β-Galactosidase staining intensity ([1]; Forestomach): + | β-Galactosidase staining intensity ([1]; Ileum): +++ | β-Galactosidase staining intensity ([1]; Jejunum): +++ | β-Galactosidase staining intensity ([1]; Kidney): ++ | 3-mc induced lacZ expression in tissues ([1]; Liver, Kidney, Brain (specific regions), Duodenum, Jejunum, Ileum, Lung, Spleen, Oesophagus, Colon, Pancreas, Adrenal Gland, Ovary): detected | β-Galactosidase staining intensity ([1]; Liver): ++++ | β-Galactosidase staining intensity ([1]; Lung): + | β-Galactosidase staining intensity ([1]; Oesophagus): ++ | β-Galactosidase staining intensity ([1]; Ovary): + | β-Galactosidase staining intensity ([1]; Pancreas): + | β-Galactosidase staining intensity ([1]; Spleen): ++ | β-Galactosidase staining intensity ([1]; Stomach): + | β-Galactosidase staining intensity ([1]; Testes): + | induction of lacZ expression in the liver ([1]; listed as 3-mc): very high | induction of lacZ expression in the liver ([1]; listed as 3-methyl-cholanthene): massive induction | induction of expression in spleen and bowel ([1]; spleen and bowel, 9 kb rat CYP1A1 promoter transgenic mice): substantial induction | β-Galactosidase staining intensity (β-galactosidase activity; Duodenum): + | β-Galactosidase staining intensity (β-galactosidase activity; Ileum): + | β-Galactosidase staining intensity (β-galactosidase activity; Jejunum): + | β-Galactosidase staining intensity (β-galactosidase activity; Kidney): + | induction of the transgene (Ah receptor): an inducer of the transgene | induction of the transgene (modified Ah receptor): not an inducer of the transgene | increase of hepatic expression levels (CAT reporter) ([2]; liver, versus mock-induction): ≤ 10,000 fold | induction of CAT expression ([2]; spleen, small bowel, kidney and lung): More modest levels of induction
